In patent publication US10981902B2 (Merck Sharp & Dohme Corp., priority 2017, dated 2021):

Target: T1, human M4 muscarinic acetylcholine receptor (Homo sapiens, UniProt P08173)
T1 construct: expressed in transfected cells; host or cells: CHO-K1
T1 sequence (P08173 1-479): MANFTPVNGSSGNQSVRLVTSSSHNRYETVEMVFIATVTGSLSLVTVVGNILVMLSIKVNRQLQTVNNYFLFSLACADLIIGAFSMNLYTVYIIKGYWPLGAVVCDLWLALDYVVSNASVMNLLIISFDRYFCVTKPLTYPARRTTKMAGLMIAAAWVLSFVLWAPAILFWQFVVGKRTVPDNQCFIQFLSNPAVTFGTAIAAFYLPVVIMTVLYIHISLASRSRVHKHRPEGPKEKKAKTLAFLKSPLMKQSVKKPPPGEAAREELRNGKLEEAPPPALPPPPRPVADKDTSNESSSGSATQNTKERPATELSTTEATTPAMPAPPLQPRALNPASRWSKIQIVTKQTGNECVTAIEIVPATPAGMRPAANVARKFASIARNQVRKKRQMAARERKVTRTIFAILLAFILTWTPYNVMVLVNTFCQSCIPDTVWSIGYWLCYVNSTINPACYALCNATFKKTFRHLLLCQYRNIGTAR
Experiment: human FLIPR-based M4 PAM assay (calcium mobilization, CHO-K1 cells with human M4 receptor and Gαqi5)
Type: cell-based
Details: inflection point (IP) of dose response curve, acetylcholine added at 20% of maximum response, read-out: M4 FLIPPR Hu IP
Description: In a typical experiment the M4 muscarinic acetylcholine receptor modulating activity of the compounds of the present invention was determined in accordance with the following experimental method. CHO-K1 cells stably transfected with human M4 receptor and chimeric G-protein Gαqi5 (Coward P, et al., Analytical Biochemistry, 270:242-248 (1999)) are thawed from liquid N2 storage, resuspended in growth medium, plated in black, clear bottom 384 well plates, and incubated 16-20 hours at 37° C., 5% CO2. On the day of assay, growth medium is removed, the cells are washed 2 times with wash buffer, and cells are incubated in dye loading buffer at 37° C., 5% CO2 for ˜1 hour. Following dye loading the cell plates are placed in a FLIPR Tetra instrument and while monitoring dye fluorescence (excitation […]), 10 uL of test substance at increasing concentrations is added, and fluorescence values are recorded for 4 min. Next, 10 uL of acetylcholine is added (final concentration calculated so as to achieve 20% of the maximum acetycholine response), and the fluorescence reading is continued for 3.5 min. In some cases, a third addition of acetylcholine (final concentration calculated to achieve 70% of the maximal acetylcholine response) is performed. The resulting dose response curves are fit to a 4 parameter logistic equation and the final result is determined as the inflection point (IP) of the curve
CHO-K1 cells stably transfected with human M4 receptor and chimeric G-protein Gαqi5 are thawed from liquid N2 storage, resuspended in growth medium, plated in black, clear bottom 384 well plates, and incubated 16-20 hours at 37° C., 5% CO2.
On the day of assay, growth medium is removed, the cells are washed 2 times with wash buffer, and cells are incuabted in dye loading buffer at 37° C., 5% CO2 for ˜1 h. Following dye loading the cell plates are placed in a FLIPR Tetra instrument and while monitoring dye fluorescence ([…]), 10 uL of test substance at increasing concentrations is added, and fluorescence values are recorded for 4 min. Next, 10 uL of acetylcholine is added (final concentration calculated so as to achieve 20% of the maximum acetycholine response), and the fluorescence reading is continued for 3.5 min. In some cases, a third addition of acetylcholine (final concentration calculated to achieve 70% of the maximal acetylcholine response) is performed.

SMILES	EC50
CN1Cc2ccc(-c3nc(C(F)F)ccc3-c3cnc(CC(C)(C)C(F)(F)F)o3)cc2C1=O [Example 26, 6-(6-(difluoromethyl)-3-(2-(3,3,3-trifluoro-2,2-dimethylpropyl)-oxazol-5-yl)pyridin-2-yl)-2-methylisoindolin-1-one]	63 nM
CN1Cc2ccc(-c3nc(C#N)ccc3-c3cnc(CC4(O)CCCC4)o3)cc2C1=O [Example 81, 5-(2-((1-hydroxycyclopentyl)methyl)oxazol-5-yl)-6-(2-methyl-3-oxoisoindolin-5-yl) picolinonitrile]	184 nM
Cc1cn2ccc(-c3nc(C#N)ccc3-c3cnc(CC4CC4)o3)cc2n1 [Example 60, 5-(2-(cyclopropylmethyl)oxazol-5-yl)-6-(2-methylimidazo[1,2-a]pyridin-7-yl)picolinonitrile]	79 nM
O=C1c2cc(-c3nc4c(cc3-c3cnc(CC5CCCC5)o3)CCC4)cnc2CN1CC1CC1 [Example 52, 3-(3-(2-(cyclopentylmethyl)oxazol-5-yl)-6,7-dihydro-5H-cyclopenta[b]pyridin-2-yl)-6-(cyclopropylmethyl)-6,7-dihydro-5H-pyrrolo[3,4-b] pyridin-5-one]	178 nM
CC1(Cc2ncc(-c3ccc(C#N)nc3N3CCn4ccnc4C3)o2)CCCC1 [Example 9, 6-(5,6-dihydro-imidazo[1,2-a]-pyrazin-7(8H)-yl)-5-(2-((1-methyl-cyclopentyl)-methyl)oxazol-5-yl)picolinonitrile]	108 nM
Cc1cn2ccc(-c3nc(C#N)ccc3-c3cnc(CCC(F)(F)C(F)(F)F)o3)cc2n1 [Example 108, 6-(2-methylimidazo [1,2-a]pyridin-7-yl)-5-(2-(3,3,4,4,4-pentafluorobutyl)oxazol-5-yl) picolinonitrile]	133 nM
N#Cc1ccc(-c2cnc(CC3CC3)o2)c(-c2ccn3ccnc3c2)n1 [Example 63, 5-(2-(cyclopropylmethyl)oxazol-5-yl)-6-(imidazo[1,2-a]pyridin-7-yl)picolinonitrile]	94 nM
CC(Cc1ncc(-c2ccc(C#N)nc2-c2ccn3ccnc3c2)o1)C(F)(F)F (racemic) [Example 38, 6-(imidazo[1,2-a]-pyridin-7-yl)-5-(2-(3,3,3-trifluoro-2-methylpropyl)oxazol-5-yl)picolinonitrile]	212 nM
CC(Cc1ncc(-c2ccc(C#N)nc2-c2ccc3cccnc3c2)o1)C(C)(C)F (stereo not shown) [Example 83, 5-(2-(3-fluoro-2,3-dimethylbutyl)oxazol-5-yl)-6-(quinolin-7-yl) picolinonitrile]	68 nM
CC(C)(C)CCc1ncc(-c2ccc(C#N)nc2-c2ccc3cccnc3c2)o1 [Example 65, 5-(2-(3,3-dimethylbutyl)oxazol-5-yl)-6-(quinolin-7-yl)picolinonitrile]	96 nM
Cc1cn2ccc(-c3ncccc3-c3cnc(CC4(F)CCCC4)o3)cc2n1 [Example 91, 2-((1-fluorocyclopentyl)methyl)-5-(2-(2-methylimidazo [1,2-a]pyridin-7-yl)pyridin-3-yl)oxazole]	76 nM
Cc1cn2ccc(-c3nc(C#N)ccc3-c3cnc(CC(C)C(F)(F)F)o3)cc2n1 (stereo not shown) [Example 95, 6-(2-methylimidazo[1,2-a]pyridin-7-yl)-5-(2-(3,3,3-trifluoro-2-methylpropyl)oxazol-5-yl)picolinonitrile]	194 nM
Cc1cn2ccc(-c3nc(C#N)ccc3-c3cnc(CC(F)C4CC4)o3)cc2n1 (stereo not shown) [Example 88, 5-(2-(2-cyclopropyl-2-fluoroethyl)oxazol-5-yl)-6-(2-methylimidazo [1,2-a]pyridin-7-yl)picolinonitrile]	63 nM
Cc1nc2cc(-c3nc(C#N)ccc3-c3cnc(CC(C)(C)C(F)(F)F)o3)ccn2n1 [Example 110, 6-(2-methyl-[1,2,4]triazolo [1,5-a]pyridin-7-yl)-5-(2-(3,3,3-trifluoro-2,2-dimethylpropyl)oxazol-5-yl)picolinonitrile]	118 nM

The next compounds have a lower EC50 than those just listed; values first:

EC50	SMILES
44 nM	Cc1cn2ccc(-c3nc(C#N)ccc3-c3cnc(CC(F)C4CC4)o3)cc2n1 (stereo not shown) [Example 87, 5-(2-(2-cyclopropyl-2-fluoroethyl)oxazol-5-yl)-6-(2-methylimidazo [1,2-a]pyridin-7-yl) picolinonitrile]
19 nM	COc1cc2ccc(-c3nc(C)ccc3-c3cnc(Cc4ccccc4F)o3)cc2nn1 [Example 48, 2-(2-fluorobenzyl)-5-(2-(3-methoxycinnolin-7-yl)-6-methylpyridin-3-yl)oxazole]
42 nM	CN1Cc2ccc(-c3nc(C#N)ccc3-c3cnc(CC4(F)CCCC4)o3)cc2C1=O [Example 82, 5-(2-((1-fluorocyclopentyl)methyl)oxazol-5-yl)-6-(2-methyl-3-oxoisoindolin-5-yl)picolinonitrile]
43 nM	CC(C)CCc1ncc(-c2ccc(C#N)nc2-c2ccc3cccnc3c2)o1 [Example 31, 5-(2-isopentyloxazol-5-yl)-6-(quinolin-7-yl)picolinonitrile]
31 nM	CCC(C)(F)Cc1ncc(-c2ccc(C#N)nc2-c2ccn3cc(C)nc3c2)o1 (stereo not shown) [Example 90, 5-(2-(2-fluoro-2-methylbutyl)oxazol-5-yl)-6-(2-methylimidazo [1,2-a]pyridin-7-yl)picolinonitrile]
44 nM	CN1Cc2ccc(-c3nc(F)ccc3-c3cnc(CC4(C)CCCC4)o3)cc2C1=O [Example 8, 6-(6-fluoro-3-(2-((1-methylcyclo-pentyl)methyl)oxazol-5-yl)pyridin-2-yl)-2-methylisoindolin-1-one]
46 nM	CC(CCc1ncc(-c2ccc(C#N)nc2-c2ccn3ccnc3c2)o1)C(F)(F)F (stereo not shown) [Example 40, 6-(imidazo[1,2-a]-pyridin-7-yl)-5-(2-(4,4,4-trifluoro-3-methylbutyl)oxazol-5-yl)picolinonitrile]
42 nM	CN1Cc2ccc(-c3ncccc3-c3cnc(CC4CCCC4)o3)cc2C1=O [Example 3, 6-(3-(2-(cyclo-pentylmethyl)-oxazol-5-yl)-pyridin-2-yl)-2-methylisoindolin-1-one]
49 nM	Cc1nc(CC2CCCC2)oc1-c1ccc(C#N)nc1-c1ccc2cccnc2c1 [Example 64, 5-(2-(cyclopentylmethyl)-4-methyloxazol-5-yl)-6-(quinolin-7-yl)picolinonitrile]
24 nM	N#Cc1ccc(-c2cnc(CC3CCCC3)o2)c(-c2ccc3cccnc3c2)n1 [Example 50, 5-(2-(cyclopentylmethyl)oxazol-5-yl)-6-(quinolin-7-yl)picolinonitrile]
24 nM	CC1(Cc2ncc(-c3cc4c(nc3-c3cnc5c(c3)C(=O)NC5)C(F)CC4)o2)CCCC1 (single isomer, unassigned) [Example 44, 3-(7-fluoro-3-(2-((1-methylcyclopentyl)methyl)oxazol-5-yl)-6,7-dihydro-5H-cyclopenta[b]pyridin-2-yl)-6,7-dihydro-5H-pyrrolo[3,4-b]pyridin-5-one]
51 nM	N#Cc1ccc(-c2cnc(CC3(F)CCCC3)o2)c(-c2ccc3cccnc3c2)n1 [Example 72, 5-(2-((1-fluorocyclopentyl)methyl)oxazol-5-yl)-6-(quinolin-7-yl)picolinonitrile]
47 nM	Cc1cn2ccc(-c3nc(C#N)ccc3-c3cnc(CCC(C)(C)F)o3)cc2n1 [Example 116, 5-(2-(3-fluoro-3-methylbutyl)oxazol-5-yl)-6-(2-methylimidazo [1,2-a]pyridin-7-yl)picolinonitrile]
45 nM	CN1Cc2ncc(-c3nc(C#N)ccc3-c3cnc(CC4(F)CCCC4)o3)cc2C1=O [Example 77]
